The species named for data set [1] is Rattus norvegicus. Description: cells. In kind it is functional, organism-based. The note with it: Brain.
The target of data set [2] is GABA B receptor (Rattus norvegicus, UniProt O88871+Q9Z0U4).
The target in data set [3] is GABA-A receptor; anion channel.
Data set [4] in a line: Reversal potential is determined electrophysiologically against the GABA A receptor. The class given is functional.
The nature of data set [5]: physchem.
Description: PKa values of the compound

A word on the IC50: it is the midpoint of a concentration-inhibition curve. Read a high IC50 as weaker potency in that assay. As a reminder, the pKa is the pH at which an ionisable group is half protonated.

Some results are limits rather than exact numbers.

GABA B receptor, sequence (Q9Z0U4 whole entry): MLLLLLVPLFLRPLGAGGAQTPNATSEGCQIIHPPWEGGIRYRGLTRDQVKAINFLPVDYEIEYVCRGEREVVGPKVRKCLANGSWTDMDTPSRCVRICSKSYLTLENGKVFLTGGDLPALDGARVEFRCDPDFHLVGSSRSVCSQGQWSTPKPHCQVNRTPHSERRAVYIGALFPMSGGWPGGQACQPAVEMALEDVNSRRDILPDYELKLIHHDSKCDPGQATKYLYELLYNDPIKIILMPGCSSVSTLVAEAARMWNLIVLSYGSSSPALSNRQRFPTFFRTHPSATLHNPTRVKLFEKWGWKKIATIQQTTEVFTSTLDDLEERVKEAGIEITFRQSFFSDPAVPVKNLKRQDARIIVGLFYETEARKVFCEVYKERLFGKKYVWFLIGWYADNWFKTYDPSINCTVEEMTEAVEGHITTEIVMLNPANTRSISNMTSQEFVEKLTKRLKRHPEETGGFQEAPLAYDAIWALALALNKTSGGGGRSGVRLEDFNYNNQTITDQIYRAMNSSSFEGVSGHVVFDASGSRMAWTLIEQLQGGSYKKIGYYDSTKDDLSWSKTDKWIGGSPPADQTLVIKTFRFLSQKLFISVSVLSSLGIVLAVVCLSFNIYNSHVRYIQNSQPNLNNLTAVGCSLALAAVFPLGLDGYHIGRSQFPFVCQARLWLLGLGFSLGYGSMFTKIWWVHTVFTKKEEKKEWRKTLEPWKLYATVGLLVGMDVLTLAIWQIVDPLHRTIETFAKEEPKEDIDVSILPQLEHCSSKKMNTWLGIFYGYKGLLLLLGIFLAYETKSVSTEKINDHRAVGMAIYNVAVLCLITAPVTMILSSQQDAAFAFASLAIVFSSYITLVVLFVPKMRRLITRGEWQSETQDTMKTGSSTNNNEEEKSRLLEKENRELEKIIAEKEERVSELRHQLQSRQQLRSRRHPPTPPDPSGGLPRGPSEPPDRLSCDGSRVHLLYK
GABA B receptor, sequence (O88871 whole entry): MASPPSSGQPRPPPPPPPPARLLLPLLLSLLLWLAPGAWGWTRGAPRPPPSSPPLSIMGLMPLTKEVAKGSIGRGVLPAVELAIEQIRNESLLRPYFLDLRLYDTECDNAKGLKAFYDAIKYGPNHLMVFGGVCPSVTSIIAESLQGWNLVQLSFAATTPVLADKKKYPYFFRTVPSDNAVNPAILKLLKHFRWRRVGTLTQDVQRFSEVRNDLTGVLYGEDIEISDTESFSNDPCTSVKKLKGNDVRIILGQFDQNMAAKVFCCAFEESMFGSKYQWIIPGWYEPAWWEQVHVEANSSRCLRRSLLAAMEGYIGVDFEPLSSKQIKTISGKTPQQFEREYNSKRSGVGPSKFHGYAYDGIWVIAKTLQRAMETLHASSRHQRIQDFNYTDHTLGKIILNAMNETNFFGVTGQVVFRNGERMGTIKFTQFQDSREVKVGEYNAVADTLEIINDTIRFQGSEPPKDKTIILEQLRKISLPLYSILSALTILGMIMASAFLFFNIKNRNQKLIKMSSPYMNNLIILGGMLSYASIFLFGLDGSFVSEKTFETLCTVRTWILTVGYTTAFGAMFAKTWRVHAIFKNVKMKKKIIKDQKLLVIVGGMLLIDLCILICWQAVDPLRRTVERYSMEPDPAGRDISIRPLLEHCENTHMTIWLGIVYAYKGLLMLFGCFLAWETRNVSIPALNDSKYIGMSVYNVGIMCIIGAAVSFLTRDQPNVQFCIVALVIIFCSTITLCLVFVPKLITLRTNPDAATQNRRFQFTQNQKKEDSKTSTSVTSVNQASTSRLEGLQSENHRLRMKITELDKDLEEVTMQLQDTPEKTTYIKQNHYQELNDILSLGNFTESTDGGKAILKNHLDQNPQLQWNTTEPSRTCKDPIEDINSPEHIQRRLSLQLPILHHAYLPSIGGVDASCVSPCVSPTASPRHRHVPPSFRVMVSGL

Take `O=C(O)CCC1CCNCC1`: the IC50 was more than 300 µM in data set [1], more than 100 µM in data set [2] and more than 100 µM in data set [3].
With `Oc1cc(C2=CCNCC2)sn1`, the IC50 in data set [1] is more than 300 µM. For the same molecule, the Reverse potential in data set [4] worked out at 5.3.
Consider `O=C(O)/C=C/C1CCNCC1`, for which the figures for the IC50 in data set [1], in data set [2] and in data set [3] were more than 300 µM, more than 100 µM and 52 µM, respectively.
Consider `Oc1cc(C2CCNCC2)no1`, for which the figures for the IC50 in data set [1], in data set [2] and in data set [3] were more than 300 µM, more than 100 µM and 26 µM, respectively. Further, the Reverse potential in data set [4] turned out to be 4.3.
For `O=C(O)C1=CCNCC1` [ISOGUVACINE], in that order: more than 300 µM, more than 100 µM, 0.022 µM and 5.2.
Turning to `Oc1cc(C2=CCNCC2)on1`, the IC50 in data set [1] was more than 300 µM; in data set [2], more than 100 µM; in data set [3] it was 32 µM. In addition, the Reverse potential in data set [4] amounted to 5.6. The molecule further gave a pKa in data set [5] of 5.1.
Regarding `O=C(O)CCC1=CCNCC1`, the IC50 in data set [1] is more than 300 µM; in data set [2] it was more than 100 µM; in data set [3], more than 100 µM.
Turning to `Oc1cc(C2CCNCC2)on1`, the IC50 in data set [1] is more than 300 µM. For the same molecule, the Reverse potential in data set [4] was 5.9. This molecule also registered a pKa in data set [5] of 5.3.
With `O=C(O)/C=C/C1=CCNCC1`, the IC50 is more than 300 µM in data set [1], more than 100 µM in data set [2] and more than 100 µM in data set [3].
With `Oc1cc(C2CCNCC2)sn1`, the IC50 in data set [1] was more than 300 µM; in data set [2] it was more than 100 µM; in data set [3], 1.3 µM. Also, in data set [4], the Reverse potential was 5.5. The same molecule yielded a pKa in data set [5] of 6.9.
In turn, `O=c1cc(C2=CCNCC2)s[nH]1` came in with an IC50 in data set [2] of more than 100 µM.

The values above are taken from ChEMBL document CHEMBL1128521, “Partial GABAA receptor agonists. Synthesis and in vitro pharmacology of a series of nonannulated analogs of 4,5,6,7-tetrahydroisoxazolo[5,4-c]pyridin-3-ol” (J Med Chem, 1995).
